Measured values published in PubChem BioAssay (NCI).
Several values for one entry are separate records, joined by “and”; a condition that tells them apart may be missing. Identical values can stand only once.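 Briefly, cells in 96-well plates were exposed to five compound concentrations for 48 h, and endpoints were estimated by linear interpolation. GI50 is the concentration that inhibits growth by half. TGI denotes the concentration required for complete inhibition of growth.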

Tests used:
Assay in all cases: NCI anticancer screen, dose series, 48 h
[1] = test system: COLO 205 colon
[2] = test system: HT29 colon
[3] = test system: M19-MEL melanoma
[4] = test system: MOLT-4 leukemia
[5] = test system: NCI-H226 lung
[6] = test system: SK-OV-3 ovarian
[7] = test system: SNB-19 CNS
[8] = test system: SNB-75 CNS
[9] = test system: UACC-257 melanoma
[10] = test system: MDA-MB-231 breast

O=[Se](=O)c1ccccc1.O=[Se](=O)c1ccccc1.[Cu]
GI50 [1]: 18.5 µM
TGI [1]: 35.4 µM
GI50 [2]: 17.2 µM
TGI [2]: 39.2 µM
GI50 [3]: 5.95 µM
TGI [3]: 15.2 µM
GI50 [4]: 12 µM
TGI [4]: 65.8 µM
GI50 [5]: 21.7 µM
TGI [5]: 39.6 µM
GI50 [6]: 27.3 µM
TGI [6]: 42.1 µM
GI50 [7]: 17.4 µM
TGI [7]: 31.3 µM
GI50 [8]: 22 µM
TGI [8]: 37.6 µM
GI50 [9]: 16 µM
TGI [9]: 30.4 µM

N#C[S-].[Nd+3].c1ccc(-c2ccccn2)nc1.c1ccc(-c2ccccn2)nc1.c1ccc(-c2ccccn2)nc1
GI50 [1]: 18.6 µM
TGI [1]: > 100 µM
GI50 [2]: 4.83 µM
TGI [2]: > 100 µM
GI50 [3]: 9.78 µM
TGI [3]: 54 µM
GI50 [5]: 2.89 µM
TGI [5]: 7.52 µM
GI50 [6]: 6.93 µM
TGI [6]: > 100 µM
GI50 [7]: 10.7 µM
TGI [7]: > 100 µM
GI50 [8]: 5.69 µM
TGI [8]: 84.4 µM
GI50 [9]: 13.5 µM
TGI [9]: 61.2 µM

Cc1cccc(C2=NC(C)(C)C(C)(C)N=C2c2cccc(C)n2)n1
TGI [1]: > 100 µM
TGI [2]: > 100 µM
TGI [3]: > 100 µM
TGI [5]: > 100 µM
TGI [6]: > 100 µM
TGI [7]: > 100 µM
TGI [8]: > 100 µM
TGI [9]: > 100 µM

O=C1Nc2cc([N+](=O)[O-])ccc2NC1/C(=N\Nc1ccccc1)C(O)c1cccc([N+](=O)[O-])c1 (stereo not given)
TGI [1]: > 100 µM
TGI [2]: > 100 µM
TGI [3]: > 100 µM
TGI [4]: > 100 µM
TGI [5]: > 100 µM
TGI [6]: > 100 µM
TGI [7]: > 100 µM
TGI [8]: > 100 µM
TGI [9]: > 100 µM

NC(=O)C#CC(N)=O
GI50 [1]: 15.4 µM and 15 µM and 73.6 µM
TGI [1]: 30.8 µM and 29.8 µM and > 100 µM
GI50 [2]: 31.2 µM and 17 µM
TGI [2]: 131 µM and 35.4 µM and > 100 µM
GI50 [3]: 11.8 µM and 10.1 µM and 28.6 µM
TGI [3]: 24.8 µM and 22.4 µM and > 65.8 µM
GI50 [4]: 3.31 µM and 14.2 µM
TGI [4]: 18.6 µM and 37.5 µM
GI50 [5]: 73.6 µM
TGI [5]: 169 µM and > 100 µM
TGI [6]: 231 µM and 214 µM and > 100 µM
TGI [7]: 241 µM and > 100 µM
TGI [8]: 79.8 µM and > 100 µM
GI50 [9]: 4.46 µM and 13.6 µM
TGI [9]: 14.2 µM and 19.5 µM

O=C1c2c(nc3ccccc3c2-c2ccccc2)CN1Nc1ccccn1
TGI [1]: > 100 µM
TGI [2]: > 100 µM
TGI [3]: > 100 µM
TGI [10]: > 100 µM
TGI [4]: > 100 µM
TGI [5]: > 89 µM
TGI [6]: > 100 µM
TGI [7]: > 100 µM
TGI [8]: > 92.8 µM
TGI [9]: > 100 µM

Cc1cccc(NC(=O)C(=O)C(C(=O)c2ccccc2F)C2OC(=O)c3ccccc32)c1Cl (stereo not given)
TGI [1]: 38.1 µM
TGI [2]: > 100 µM
TGI [3]: > 100 µM
TGI [4]: > 100 µM
TGI [5]: 62.3 µM
TGI [6]: > 100 µM
TGI [7]: > 100 µM
TGI [8]: 64.2 µM
TGI [9]: > 100 µM

O=C1C(Br)=CC2(C=C1Br)CCNC1=C2C(=O)c2cccnc2C1=O
TGI [1]: 30.1 µM
TGI [2]: 56.7 µM
TGI [10]: 31.1 µM
TGI [4]: 24.9 µM
TGI [5]: 36.9 µM
TGI [6]: 31.8 µM
TGI [7]: 20 µM
TGI [8]: 27.1 µM
TGI [9]: 21.3 µM

O=c1c(C=Nc2ccc([N+](=O)[O-])cc2)c(O)n(-c2ccccc2)c(=O)n1-c1ccccc1
TGI [1]: > 100 µM
TGI [2]: > 100 µM
TGI [10]: > 100 µM
TGI [4]: > 100 µM
TGI [5]: > 100 µM
TGI [6]: > 100 µM
TGI [7]: > 100 µM
TGI [8]: > 100 µM
TGI [9]: > 100 µM

NC(=S)Nc1[nH]c(=S)nc2c1SC1=N/C(=C\c3ccco3)C(=O)N12
TGI [1]: > 100 µM
TGI [2]: > 100 µM
TGI [10]: > 100 µM
TGI [4]: > 100 µM
TGI [5]: > 100 µM
TGI [6]: > 100 µM
TGI [7]: > 100 µM
TGI [8]: > 100 µM
TGI [9]: > 100 µM

Cc1cc(S(=O)(=O)O)c(NC(=O)C(=O)C2C=CCS2(=O)=O)cc1Cl (stereo not given)
TGI [1]: > 100 µM
TGI [2]: > 100 µM
TGI [3]: > 100 µM
TGI [4]: > 100 µM
TGI [5]: > 100 µM
TGI [6]: > 100 µM
TGI [7]: > 100 µM
TGI [8]: > 100 µM
TGI [9]: > 100 µM

Nc1ccccc1N/C=C\C(=O)C(Cl)(Cl)Cl
TGI [1]: 52.7 µM
TGI [2]: 34.6 µM
TGI [10]: > 100 µM
TGI [4]: > 100 µM
TGI [5]: > 100 µM
TGI [6]: 70.8 µM
TGI [7]: > 100 µM
TGI [8]: 72.2 µM
TGI [9]: 64.2 µM

C/C(=N\NC(N)=S)C(CN(CC(C)C)CC(C)C)C(=O)Nc1ccc(C)cc1C (stereo not given)
TGI [1]: > 100 µM
TGI [2]: > 100 µM
TGI [3]: > 100 µM
TGI [4]: > 100 µM
TGI [5]: > 100 µM
TGI [6]: > 100 µM
TGI [7]: > 100 µM
TGI [8]: > 100 µM
TGI [9]: > 100 µM

O=C(OCc1ccccc1)C1(N2CN(C3(C(=O)OCc4ccccc4)CCCC3)CN(C3(C(=O)OCc4ccccc4)CCCC3)C2)CCCC1
TGI [1]: > 10 µM
TGI [2]: > 10 µM
TGI [10]: > 10 µM
TGI [4]: > 10 µM
TGI [5]: > 10 µM
TGI [6]: > 10 µM
TGI [7]: > 10 µM
TGI [8]: > 10 µM
TGI [9]: > 10 µM

CCCCCCCCCCCCCCCCCCNc1ccn(C2OC(COP(=O)(O)OCC3OC(n4cc(C)c(=O)[nH]c4=O)CC3N=[N+]=[N-])C(O)C2O)c(=O)n1 (stereo not given)
TGI [1]: 30.7 µM
TGI [2]: 35.1 µM
TGI [10]: 56.7 µM
TGI [4]: 44.4 µM
TGI [5]: 43.7 µM
TGI [6]: 40.3 µM
TGI [7]: 59.7 µM
TGI [8]: 58.5 µM
TGI [9]: 76.3 µM

O=C(c1ccccc1)c1ccc2nc(-c3c(Cl)c(Cl)c(Cl)c(Cl)c3C(=O)N/N=C/c3ccccc3)[nH]c2c1
TGI [1]: 39.3 µM
TGI [2]: > 100 µM
TGI [10]: 79.2 µM
TGI [4]: 54.1 µM
TGI [5]: 79.8 µM
TGI [6]: > 100 µM
TGI [7]: > 100 µM
TGI [8]: 92.6 µM
TGI [9]: 85 µM

O=[N+]([O-])c1ccc(N=Nc2c(O)c(S(=O)(=O)O)cc3cc(S(=O)(=O)O)ccc23)cc1
TGI [1]: > 100 µM
TGI [2]: > 100 µM
TGI [10]: > 100 µM
TGI [4]: > 100 µM
TGI [5]: > 100 µM
TGI [6]: > 100 µM
TGI [7]: > 100 µM
TGI [8]: > 100 µM
TGI [9]: > 100 µM

CN(C)CCNC(=O)c1cccc2nc3c(nc12)-c1ccccc1C3=O
TGI [1]: 58.5 µM
TGI [2]: 22.8 µM
TGI [10]: 23.8 µM
TGI [4]: 7.52 µM
TGI [5]: 39.6 µM
TGI [6]: 97 µM
TGI [7]: 47.6 µM
TGI [8]: 31 µM
TGI [9]: 34.6 µM

O=C1Cc2c([nH]c3ccc(Br)cc23)-c2ccccc2N1
TGI [1]: > 100 µM
TGI [2]: > 100 µM
TGI [10]: > 100 µM
TGI [4]: > 100 µM
TGI [5]: > 100 µM
TGI [6]: > 100 µM
TGI [7]: > 100 µM
TGI [8]: > 100 µM
TGI [9]: > 100 µM

C=CCNC(=O)NC1=CSC2=NC(=O)C3(NN12)c1ccccc1-c1ccccc13
TGI [1]: > 10 µM
TGI [2]: > 10 µM
TGI [10]: > 10 µM
TGI [4]: > 10 µM
TGI [5]: > 10 µM
TGI [6]: > 10 µM
TGI [7]: > 10 µM
TGI [8]: > 10 µM
TGI [9]: > 10 µM

O=C1C=C(Br)c2c(Br)sc(Br)c21
TGI [1]: 15.9 µM
TGI [2]: 44.5 µM
TGI [10]: 33.9 µM
TGI [4]: 12.2 µM
TGI [5]: 98.8 µM
TGI [6]: 64.3 µM
TGI [7]: 35.7 µM
TGI [8]: 39.7 µM
TGI [9]: 12.6 µM

CC(CO)C1C[C@H](O)[C@@]2(C)CC(=O)C=C(CO)[C@@H]2C1 (stereo not given in full)
TGI [1]: > 100 µM
TGI [2]: > 100 µM
TGI [10]: > 100 µM
TGI [4]: > 100 µM
TGI [5]: > 100 µM
TGI [6]: > 100 µM
TGI [7]: > 100 µM
TGI [8]: > 100 µM
TGI [9]: > 100 µM

O=c1cc(N2CCCC2)[nH]c(=O)n1-c1cccc(C(F)(F)F)c1
TGI [1]: > 100 µM
TGI [2]: > 100 µM
TGI [10]: > 100 µM
TGI [4]: > 100 µM
TGI [5]: > 100 µM
TGI [6]: > 100 µM
TGI [7]: > 100 µM
TGI [8]: > 100 µM
TGI [9]: > 100 µM

OC1(c2cc3ccccc3s2)CCCCC1
TGI [1]: 41.8 µM
TGI [2]: 54.5 µM
TGI [10]: 87.5 µM
TGI [4]: 67.4 µM
TGI [5]: > 100 µM
TGI [6]: > 100 µM
TGI [7]: > 100 µM
TGI [8]: > 100 µM
TGI [9]: > 100 µM

CSc1c(C#N)c(=O)[nH]c2n[nH]c(C)c12
TGI [1]: > 100 µM
TGI [2]: > 100 µM
TGI [10]: > 100 µM
TGI [4]: > 100 µM
TGI [5]: > 100 µM
TGI [6]: > 100 µM
TGI [7]: > 100 µM
TGI [8]: > 100 µM
TGI [9]: > 100 µM

CC(=O)O[C@]12CCCC1C1(O)C(O)CCCC12 (stereo not given in full)
TGI [1]: > 100 µM
TGI [2]: > 100 µM
TGI [3]: > 100 µM
TGI [4]: > 100 µM
TGI [5]: > 100 µM
TGI [6]: > 100 µM
TGI [7]: > 100 µM
TGI [8]: > 100 µM
TGI [9]: > 100 µM

Cc1sc(/N=C/c2c[nH]c3ccccc23)c(C#N)c1C
TGI [1]: > 100 µM
TGI [2]: > 100 µM
TGI [10]: > 100 µM
TGI [4]: > 100 µM
TGI [5]: > 100 µM
TGI [6]: > 100 µM
TGI [7]: > 100 µM
TGI [8]: > 100 µM
TGI [9]: > 100 µM
